Consider 1 molecule from BindingDB's records for doi:10.1016/s0960-894x(99)00632-0 (3-Dimensional Pharmaceuticals, 2000).

By Ki is commonly meant a dissociation constant, usually derived from enzyme kinetics or from competition with a known ligand. Read a low Ki as tighter binding.

A short description of this assay: Compound was evaluated for the inhibitory constant against human Serine protease chymotrypsin.

`Cc1cc(OCCC=NNC(=N)N)cc(OS(=O)(=O)c2ccccc2OC(F)(F)F)c1` [3-[((3E)-3-{[(E)-amino(imino)methyl]hydrazono}propyl)oxy]-5-methylphenyl 2-(trifluoromethoxy)benzenesulfonate] yielded an inhibitory constant (Ki) of 88 µM.
